Patent US4100346A, “Certain 7(o-amino-methyl- or methylaminomethylphenyl- or cyclohexadienyl- or thienylacetamide)-3[1-carboxymethyl-(or ethyl- or propyl-)-tetrazol-5-ylthiomethyl]-3-cephem-4-carboxylic acids” (Bristol-Myers Company, priority 1976, dated 1978)
≈ marks a conversion by molar mass, not a printed value. Where two headings read alike, the source gives them in different places.

Columns and labels:
[1] = system: Arizona hinshawii; assay: Growth inhibitory activity, antibiotic dilution technique; conditions: Salmonella enterica, read-out: Minimum inhibitory concentration
[2] = Recovery in urine after intramuscular injection; conditions: rat, im, 10 mg/kg
[3] = Antibiotic concentration in blood after intramuscular injection; conditions: mouse, im, 20 mg/kg
[4] = system: Proteus rettgeri; assay: Growth inhibitory activity, antibiotic dilution technique; conditions: Providencia rettgeri, read-out: percent of strains inhibited
[5] = system: Escherichia coli; assay: Minimum growth inhibitory and bactericidal concentrations for Enterobacteriaceae; assay type: cell-based; conditions: for MBC: read-out: MBC, minimum bactericidal concentration; for MIC: read-out: MIC, Minimum growth inhibitory concentration
Source text: (§1) Miscellaneous. Methods for determining bactericidal activity and susceptibility to cell-free β-lactamase were those previously used; Leitner et al., BL-S640, A Cephalosporin With a Broad Spectrum of Antibacterial Activity: Properties in vitro, Antimicrob. Agents Chemother. 7:298-305 (1975).
(§2) *MIC, Minimum growth inhibitory concentration; MBC, minimum bactericidal
(§3) concentration; expressed as micrograms per milliliter. The inoculum was […]

[6] = system: Proteus rettgeri; assay: as above; assay type: cell-based; conditions: Providencia rettgeri, inoculum 10^4 cells; for MBC: read-out: MBC, minimum bactericidal concentration; for MIC: read-out: MIC, Minimum growth inhibitory concentration
Source text: as §1, §2, §3

[7] = system: Enterobacter cloacae; assay: as above; assay type: cell-based; conditions: for MBC: read-out: MBC, minimum bactericidal concentration; for MIC: read-out: MIC, Minimum growth inhibitory concentration
Source text: as §1, §2, §3

[8] = system: Enterobacter aerogenes; assay: as above; assay type: cell-based; conditions: Klebsiella aerogenes, inoculum 10^4 cells; for MBC: read-out: MBC, minimum bactericidal concentration; for MIC: read-out: MIC, Minimum growth inhibitory concentration
Source text: as §1, §2, §3

[9] = system: Proteus mirabilis; assay: as above; assay type: cell-based; conditions: for MBC: read-out: MBC, minimum bactericidal concentration; for MIC: read-out: MIC, Minimum growth inhibitory concentration
Source text: as §1, §2, §3

[10] = system: Klebsiella pneumoniae; assay: as above; assay type: cell-based; conditions: for MBC: read-out: MBC, minimum bactericidal concentration; for MIC: read-out: MIC, Minimum growth inhibitory concentration
Source text: as §1, §2, §3

[11] = system: Proteus vulgaris; assay: as above; assay type: cell-based; conditions: Proteus vulgaris, inoculum 10^4 cells; for MBC: read-out: MBC, minimum bactericidal concentration; for MIC: read-out: MIC, Minimum growth inhibitory concentration
Source text: as §1, §2, §3

[12] = system: Serratia marcescens; assay: Growth inhibitory activity, antibiotic dilution technique; conditions: read-out: Minimum inhibitory concentration
[13] = system: Listeria monocytogenes; assay: as above; conditions: read-out: Minimum inhibitory concentration
[14] = system: Staphylococcus Aureus; assay: Effect of inoculum size on susceptibility of Staphylococcus aureus; assay type: cell-based; conditions: for MIC: Staphylococcus aureus, geometric means, read-out: Minimum inhibitory concentration
[15] = system: Vibrio cholerae; assay: Growth inhibitory activity, antibiotic dilution technique; conditions: read-out: Minimum inhibitory concentration
[16] = system: Alcaligenes sp.; assay: as above
[17] = system: Escherichia coli; assay: Effect of inoculum size on susceptibility of Enterobacteriaceae
[18] = system: Proteus rettgeri; assay: as above; conditions: Providencia rettgeri
[19] = Escherichia coli strain 1, inoculum 10^4 cells
[20] = Escherichia coli strain 2, inoculum 10^4 cells
[21] = Escherichia coli strain 3, inoculum 10^4 cells
[22] = Escherichia coli strain 4, inoculum 10^4 cells
[23] = Escherichia coli strain 5, inoculum 10^4 cells
[24] = Escherichia coli strain 6, inoculum 10^4 cells
[25] = Enterobacter cloacae strain 3, inoculum 10^4 cells
[26] = Enterobacter cloacae strain 4, inoculum 10^4 cells
[27] = Enterobacter cloacae strain 8, inoculum 10^4 cells
[28] = Enterobacter aerogenes strain 1
[29] = Enterobacter aerogenes strain 2
[30] = Enterobacter aerogenes strain 3
[31] = Proteus mirabilis strain 1, inoculum 10^4 cells
[32] = Proteus mirabilis strain 2, inoculum 10^4 cells
[33] = Proteus mirabilis strain 3, inoculum 10^4 cells
[34] = Proteus mirabilis strain 4, inoculum 10^4 cells
[35] = Proteus mirabilis strain 5, inoculum 10^4 cells
[36] = Klebsiella pneumoniae strain 1, inoculum 10^4 cells
[37] = Klebsiella pneumoniae strain 2, inoculum 10^4 cells
[38] = Klebsiella pneumoniae strain 3, inoculum 10^4 cells
[39] = Klebsiella pneumoniae strain 4, inoculum 10^4 cells
[40] = Klebsiella pneumoniae strain 5, inoculum 10^4 cells
[41] = Klebsiella pneumoniae strain 6, inoculum 10^4 cells

Cc1nnc(SCC2=C(C(=O)O)N3C(=O)[C@@H](NC(=O)Cn4cnnn4)[C@H]3SC2)s1 [Cefazolin]
MIC [1]: 1 µg/mL (≈ 2.2 µM)
dose excreted at 24 h [2]: 75%
Cmax [3]: 31000 ng/mL
inhibition at 16 µg/mL [4]: 44%
MBC [5, 19]: 2 µg/mL (≈ 4.4 µM)
MIC [5, 19]: 2 µg/mL (≈ 4.4 µM)
MBC [5, 20]: 16 µg/mL (≈ 35.2 µM)
MIC [5, 20]: 8 µg/mL (≈ 17.6 µM)
MBC [5, 21]: 2 µg/mL (≈ 4.4 µM)
MIC [5, 21]: 2 µg/mL (≈ 4.4 µM)
MBC [5, 22]: 2 µg/mL (≈ 4.4 µM)
MIC [5, 22]: 1 µg/mL (≈ 2.2 µM)
MBC [5, 23]: 2 µg/mL (≈ 4.4 µM)
MIC [5, 23]: 2 µg/mL (≈ 4.4 µM)
MBC [5, 24]: 4 µg/mL (≈ 8.8 µM)
MIC [5, 24]: 2 µg/mL (≈ 4.4 µM)
MBC ([6]; Proteus rettgeri strain 2): 0.5 µg/mL (≈ 1.1 µM)
MIC ([6]; Proteus rettgeri strain 2): 0.25 µg/mL (≈ 0.55 µM)
MBC ([6]; Proteus rettgeri strain 3): > 250 µg/mL
MIC ([6]; Proteus rettgeri strain 3): 4 µg/mL (≈ 8.8 µM)
MBC [7, 25]: 8 µg/mL (≈ 17.6 µM)
MIC [7, 25]: 4 µg/mL (≈ 8.8 µM)
MBC [7, 26]: > 250 µg/mL
MIC [7, 26]: 250 µg/mL (≈ 550 µM)
MBC [7, 27]: > 250 µg/mL
MIC [7, 27]: > 250 µg/mL
MBC [8, 28]: 125 µg/mL (≈ 275 µM)
MIC [8, 28]: 32 µg/mL (≈ 70.4 µM)
MBC [8, 29]: > 250 µg/mL
MIC [8, 29]: 63 µg/mL (≈ 139 µM)
MBC [8, 30]: 250 µg/mL (≈ 550 µM)
MIC [8, 30]: 63 µg/mL (≈ 139 µM)
MBC [9, 31]: 8 µg/mL (≈ 17.6 µM)
MIC [9, 31]: 4 µg/mL (≈ 8.8 µM)
MBC [9, 32]: 16 µg/mL (≈ 35.2 µM)
MIC [9, 32]: 8 µg/mL (≈ 17.6 µM)
MBC [9, 33]: 8 µg/mL (≈ 17.6 µM)
MIC [9, 33]: 8 µg/mL (≈ 17.6 µM)
MBC [9, 34]: 8 µg/mL (≈ 17.6 µM)
MIC [9, 34]: 4 µg/mL (≈ 8.8 µM)
MBC [9, 35]: 8 µg/mL (≈ 17.6 µM)
MIC [9, 35]: 8 µg/mL (≈ 17.6 µM)
MBC [10, 36]: 2 µg/mL (≈ 4.4 µM)
MIC [10, 36]: 2 µg/mL (≈ 4.4 µM)
MBC [10, 37]: 2 µg/mL (≈ 4.4 µM)
MIC [10, 37]: 1 µg/mL (≈ 2.2 µM)
MBC [10, 38]: 2 µg/mL (≈ 4.4 µM)
MIC [10, 38]: 1 µg/mL (≈ 2.2 µM)
MBC [10, 39]: 4 µg/mL (≈ 8.8 µM)
MIC [10, 39]: 2 µg/mL (≈ 4.4 µM)
MBC [10, 40]: 2 µg/mL (≈ 4.4 µM)
MIC [10, 40]: 2 µg/mL (≈ 4.4 µM)
MBC [10, 41]: 4 µg/mL (≈ 8.8 µM)
MIC [10, 41]: 2 µg/mL (≈ 4.4 µM)
MBC ([11]; Proteus vulgaris strain 1): 4 µg/mL (≈ 8.8 µM)
MIC ([11]; Proteus vulgaris strain 1): 4 µg/mL (≈ 8.8 µM)
MBC ([11]; Proteus vulgaris strain 2): 16 µg/mL (≈ 35.2 µM)
MIC ([11]; Proteus vulgaris strain 2): 8 µg/mL (≈ 17.6 µM)
MBC ([11]; Proteus vulgaris strain 4): 16 µg/mL (≈ 35.2 µM)
MIC ([11]; Proteus vulgaris strain 4): 8 µg/mL (≈ 17.6 µM)
MIC [12]: > 125 µg/mL
MIC [13]: 1.2 µg/mL (≈ 2.64 µM)
MIC ([14]; Lacking penicillinase, 3 strains, A, Inoculum of 10^2 organisms): 0.13 µg/mL (≈ 0.286 µM)
MIC ([14]; Lacking penicillinase, 3 strains, B, inoculum of 10^6 organisms): 0.2 µg/mL (≈ 0.44 µM)
MIC ([14]; Penicillinase producer, 26 strains, A, Inoculum of 10^2 organisms): 0.22 µg/mL (≈ 0.484 µM)
MIC ([14]; Penicillinase producer, 26 strains, B, inoculum of 10^6 organisms): 0.79 µg/mL (≈ 1.74 µM)
effect of cell concentration on growth inhibitory activity ([14]; penicillinase-producing strains): moderately
MIC [15]: 4 µg/mL (≈ 8.8 µM)
MIC ([16]; read-out: Minimum inhibitory concentration, Alcaligenes sp., 2 strains, geometric mean when applicable): > 125 µg/mL
MIC ([16]; read-out: Minimum inhibitory concentration, Alcaligenes sp., 4 strains, geometric mean when applicable): > 105 µg/mL
MIC ([16]; read-out: Minimum inhibitory concentration, Alcaligenes sp., 5 strains, geometric mean when applicable): 4.6 µg/mL (≈ 10.1 µM)
MIC ([17]; read-out: Minimum Inhibitory Concentration, Escherichia coli strain 1, A, Inoculum of 10^2 organisms): 1 µg/mL (≈ 2.2 µM)
MIC ([17]; read-out: Minimum Inhibitory Concentration, Escherichia coli strain 1, B, Inoculum of 10^6 organisms): 4 µg/mL (≈ 8.8 µM)
MIC ([17]; read-out: Minimum Inhibitory Concentration, Escherichia coli strain 2, A, Inoculum of 10^2 organisms): 2 µg/mL (≈ 4.4 µM)
MIC ([17]; read-out: Minimum Inhibitory Concentration, Escherichia coli strain 2, B, Inoculum of 10^6 organisms): 16 µg/mL (≈ 35.2 µM)
MIC ([17]; read-out: Minimum Inhibitory Concentration, Escherichia coli strain 3, A, Inoculum of 10^2 organisms): 1 µg/mL (≈ 2.2 µM)
MIC ([17]; read-out: Minimum Inhibitory Concentration, Escherichia coli strain 3, B, Inoculum of 10^6 organisms): 2 µg/mL (≈ 4.4 µM)
MIC ([17]; read-out: Minimum Inhibitory Concentration, Escherichia coli strain 4, A, Inoculum of 10^2 organisms): 1 µg/mL (≈ 2.2 µM)
MIC ([17]; read-out: Minimum Inhibitory Concentration, Escherichia coli strain 4, B, Inoculum of 10^6 organisms): 2 µg/mL (≈ 4.4 µM)
MIC ([17]; read-out: Minimum Inhibitory Concentration, Escherichia coli strain 5, A, Inoculum of 10^2 organisms): 1 µg/mL (≈ 2.2 µM)
MIC ([17]; read-out: Minimum Inhibitory Concentration, Escherichia coli strain 5, B, Inoculum of 10^6 organisms): 2 µg/mL (≈ 4.4 µM)
MIC ([17]; read-out: Minimum Inhibitory Concentration, Escherichia coli strain 6, A, Inoculum of 10^2 organisms): 1 µg/mL (≈ 2.2 µM)
MIC ([17]; read-out: Minimum Inhibitory Concentration, Escherichia coli strain 6, B, Inoculum of 10^6 organisms): 2 µg/mL (≈ 4.4 µM)
MIC ([17]; read-out: Minimum Inhibitory Concentration, Escherichia coli strain 7, A, Inoculum of 10^2 organisms): 1 µg/mL (≈ 2.2 µM)
MIC ([17]; read-out: Minimum Inhibitory Concentration, Escherichia coli strain 7, B, Inoculum of 10^6 organisms): 2 µg/mL (≈ 4.4 µM)
MIC ([18]; read-out: Minimum Inhibitory Concentration, Proteus rettgeri strain 1, A, Inoculum of 10^2 organisms): 0.5 µg/mL (≈ 1.1 µM)
MIC ([18]; read-out: Minimum Inhibitory Concentration, Proteus rettgeri strain 1, B, Inoculum of 10^6 organisms): > 250 µg/mL
MIC ([18]; read-out: Minimum Inhibitory Concentration, Proteus rettgeri strain 2, A, Inoculum of 10^2 organisms): 0.25 µg/mL (≈ 0.55 µM)
MIC ([18]; read-out: Minimum Inhibitory Concentration, Proteus rettgeri strain 2, B, Inoculum of 10^6 organisms): > 250 µg/mL
MIC ([18]; read-out: Minimum Inhibitory Concentration, Proteus rettgeri strain 3, A, Inoculum of 10^2 organisms): 2 µg/mL (≈ 4.4 µM)
MIC ([18]; read-out: Minimum Inhibitory Concentration, Proteus rettgeri strain 3, B, Inoculum of 10^6 organisms): > 250 µg/mL
